Assay results as given in patent US11787840B2, “Compositions and methods for treating and preventing autoimmune induced cardiac long QT syndrome” (The United States Government As Represented By The …, priority 2019, dated 2023).
Entries after “also recorded” stand apart in the source; their conditions may differ.

System: Ro52-immunized guinea-pigs (anti-Ro Abs associated QTc prolongation)
Assay: QTc (ECG) in Ro52-immunized guinea pigs after linear peptide 4
Format: in vivo, guinea pig
Conditions: linear peptide 4, 2 mg/kg, one-time injection at day 15; ECG through day 30; versus immunized control without peptide
Source text: Immunization and peptide administration protocol. The overall experimental protocol for immunization and administration of the peptide used to generate data in FIG. 2 is shown in FIG. 6. Specifically, two group of guinea pigs (control and experimental) were first immunized subcutaneously initially on day 0 (Do) with Ro52 antigen followed by a booster at days 10 and 15, and anti-Ro antibodies levels were monitored by ELISA. The control group was not administered any peptide treatment except the immunization. The experimental group was injected with the linear peptide #4 (2 mg/kg) at day 15.

## GNMEQPHMDSRIGWLHNLGDQ [Peptide 4]
  effect on QTc interval: rescued and normalized the QTc interval; also recorded: drastic shortening of QTc
